Experimental data as given in PMC10508484, “Development and application of a PBPK modeling strategy to support antimalarial drug development” (CPT: Pharmacometrics & Systems Pharmacology, 2023).
Like-named read-outs stand apart in the source and are kept apart here.

Legend:
[1] = clinically observed oral (in vivo) clearance; pyronaridine: blood; ref amodiaquine Winstanley et al., 1987 9; DEAQ Akande et al., 2015 8, Scarsi et al., 2014 35, Tarning et al., 2012 36, Orrell et al., 2008 37; DHA Na-Bangchang et al., 2004 42; lumefantrine Lefevre et al., 2002 52, Hoglund et al., 2015 53; mefloquine Charles et al., 2007 56; proguanil Jeppesen et al., 1997 34; pyronaridine Jittama; cited from earlier work
in vitro = settings: human, Caco-2
[2] = In vivo clearance (CL IV, CL PO, CL renal, fe); settings: rat, after IV dose
CYP3A4 = CYP3A4 (Homo sapiens, UniProt P08684)
Excerpt: (§1) In nearly all cases the fraction of systemic elimination metabolised by a given enzyme (fm) determined in vitro was unavailable in the literature.

[3] = Blood to plasma ratio (B:P); settings: PBPK input; unpublished (in-house) data
UGT1A1 = biological target: T1, UGT1A1 (Homo sapiens, UniProt P22309); experiment: Metabolism by UGT1A1; assay type: in vitro ADME
T1 sequence (P22309 26-533): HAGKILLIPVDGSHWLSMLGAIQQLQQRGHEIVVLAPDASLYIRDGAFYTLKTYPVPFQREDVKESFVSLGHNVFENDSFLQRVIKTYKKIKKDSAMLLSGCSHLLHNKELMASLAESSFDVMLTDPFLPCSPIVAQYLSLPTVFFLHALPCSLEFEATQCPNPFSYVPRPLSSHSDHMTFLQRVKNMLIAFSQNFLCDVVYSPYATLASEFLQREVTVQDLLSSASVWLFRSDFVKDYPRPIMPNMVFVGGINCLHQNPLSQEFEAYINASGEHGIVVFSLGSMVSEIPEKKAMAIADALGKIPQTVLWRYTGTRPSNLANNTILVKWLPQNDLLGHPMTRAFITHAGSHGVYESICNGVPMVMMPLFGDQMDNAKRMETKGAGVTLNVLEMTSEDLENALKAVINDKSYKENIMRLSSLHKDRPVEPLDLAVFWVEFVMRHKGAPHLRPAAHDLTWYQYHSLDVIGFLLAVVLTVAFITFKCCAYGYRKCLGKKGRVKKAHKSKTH
Excerpt: as §1

[4] = Fraction unbound in plasma (fu), main binding protein; settings: PBPK input; unpublished (in-house) data
[5] = In vitro flags for victim and perpetrator properties conferring DDI liability; assay type: in vitro ADME, human; settings: in vitro flag, mainly based on in vitro determinations
[6] = ref McCarthy et al., 2020 47, cited from earlier work; for AUC Obs: 0-inf

Sequence of CYP3A4 (P08684 whole entry): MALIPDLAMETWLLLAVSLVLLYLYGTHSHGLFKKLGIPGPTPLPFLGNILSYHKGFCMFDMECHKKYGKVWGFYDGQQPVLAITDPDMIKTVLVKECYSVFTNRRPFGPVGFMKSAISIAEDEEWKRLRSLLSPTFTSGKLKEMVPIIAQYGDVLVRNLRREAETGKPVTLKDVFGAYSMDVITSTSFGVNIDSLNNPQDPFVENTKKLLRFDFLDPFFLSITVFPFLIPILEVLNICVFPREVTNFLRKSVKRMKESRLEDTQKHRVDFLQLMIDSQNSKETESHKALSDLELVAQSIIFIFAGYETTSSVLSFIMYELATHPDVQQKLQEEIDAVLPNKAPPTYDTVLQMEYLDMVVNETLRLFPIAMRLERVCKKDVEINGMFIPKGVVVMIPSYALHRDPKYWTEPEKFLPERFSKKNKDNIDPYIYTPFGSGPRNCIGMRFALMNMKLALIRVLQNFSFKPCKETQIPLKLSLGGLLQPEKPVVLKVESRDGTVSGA

In the case of `CS(=O)(=O)c1ccc(-c2cnc(N)c(-c3ccc(C(F)(F)F)nc3)c2)cc1` [MMV048], the “CL PO” value [1] is given as 0.82 L/h, the Papp A→B (in vitro) is given as 44 ×10⁻⁶ cm/s and the “dose recovered in urine” value [2] is given as 0.2 % of dose. For the same molecule, the fmCYP3A4 (CYP3A4) was 10%, the “CLint CYP3A4” value (CYP3A4; microsomes) was 0.13 µL/min/pmol and the “B:P” value [3] was 0.9. The “CLint UGT1A1” value (UGT1A1; Derived from CL PO using retrograde calculations) was 1.13 µL/min/pmol, the “fm UGT1A1” value (UGT1A1; allocation of clearance, based on in vitro data) was 90% and the “fm by UGT1A1” value (UGT1A1; fraction metabolized) was 0.9. The fu [4] was 0.145, the “Risk as a perpetrator” value [5] was “No risk has been identified as a perpetrator” and the “AUC Obs” value ([6]; 40 mg SD) was 30320 ng·h/mL. The “Cmax Obs” value ([6]; 40 mg SD) was 272.7 ng/mL, the “AUC Obs” value ([6]; 80 mg SD) was 82680 ng·h/mL and the “Cmax Obs” value ([6]; 80 mg SD) was 561.0 ng/mL. The “AUC Obs” value ([6]; 120 mg SD) was 137800 ng·h/mL and the “Cmax Obs” value ([6]; 120 mg SD) was 1094.0 ng/mL.
